# In patent US20130059783A1, “COMPOSITIONS AND METHODS FOR EXPANDING BFU-E CELLS” (priority 2010, published 2013):
# Legend:
# [1] = test system: BFU-E cells; assay: Serum free erythroid liquid expansion (SFELE) progenitor growth assay of sorted BFU-E cells; format: cell-based, mouse
# Experimental: (§1) FIGS. 1A-1F. […] Error bars show one standard deviation. […] Error bars show one standard deviation. […] Shown is the fraction of c-kit+ cells after 72 hours. […] Cell numbers in each clone were estimated under the microscope on Day 8.
# (§2) FIGS. 3A-3B. […] The experimental protocol was similar to that used in FIGS. 1A and B except that the CFU-E and BFU-E cells were purer (CD71 and CD24a^20% high and CD71 and CD24a^10% low, respectively). […] (A) Proliferation of sorted CFU-E cells. […] Error bars show one standard deviation. (B) Proliferation of sorted BFU-E cells. […] Error bars show one standard deviation.
# FIG. 4. […] Cells were counted from day 4 until the day cell counts dropped.
# (A) The total number of cells formed from 1000 BFU-E cells at different time points. […] Standard deviation between four separate biological experiments is shown in parenthesis (n/d=not determined).
# (§3) We developed a modified version of the serum free erythroid liquid expansion culture (SFELE) medium described by Dolzning et al. (Dolznig et al., 2006).
# [2] = test system: CFU-E cells; assay: SFELE progenitor growth assay of sorted CFU-E cells; format: cell-based, mouse; conditions: CD71 and CD24a 20% high cells, 100 nM Dex and/or 333 μM DMOG
# Experimental: as §1, §2, §3
# [3] = test system: BFU-E cells; assay: CFU-E and BFU-E colony forming assays of BFU-E cells cultured in SFELE medium; format: cell-based, mouse; conditions: for Total colony numbers from 1,000 "BFU-E" cells: CFU-E 1 cluster / Total colony numbers from 1,000 "BFU-E" cells: large BFU-E >20 clusters / Total colony numbers from 1,000 "BFU-E" cells: small BFU-E 5-20 clusters: CD24 and CD71 10% low BFU-E cells, SFELE, 100 nM Dex and/or 333 μM DMOG
# Experimental: Dexamethasone prevents BFU-E cell exhaustion, which allows more CFU-E cells to be formed. […] (A) The total number of cells formed from 1000 BFU-E cells at different time points. […] Standard deviation between four separate biological experiments is shown in parenthesis (n/d=not determined).
# At daily intervals colony assays were performed (Table 2). As in the experiment in FIG. 3, for the first three days the total number of cells increased at the same rate in all cultures.
# (§4) Colonies were scored after 3 days. […] The number of hemoglobinized early BFU-E and late BFU-E colonies was determined after 8-9 days following staining with 2,7-Diaminofluorene (Sigma Chemical, St. Louis, Mo.).
# [4] = test system: BFU-E cells; assay: Colony forming assays of sorted BFU-E fractions (Table S2); format: cell-based, mouse; conditions: CD71/CD24a 10% low cells, 100 nM Dex and/or 333 μM DMOG
# Excerpt: Separation of BFU-E and CFU-E cells by expression of CD71, CD24a or both CD71 and CD24a. C-kit positive BFU-E and CFU-E cells were sorted from FLEP cells based on expression of CD71, CD24a or both CD71 and CD24a. In all experiments the BFU-E fraction was the subset of c-kit^positive FLEP cells with the 10% lowest expression of CD71 and/or CD24a, while the CFU-E fraction was the subset with 20% highest expression of CD71 and/or CD24a. Sorted BFU-E and CFU-E populations were subjected to colony forming assays under two different conditions. […] The number of CFU-E colonies (±standard deviation) is shown. The sorted “BFU-E” populations mostly formed small CFU-E clusters rather than single CFU-E colonies in these assays. These CFU-E clusters are formed by precursors to CFU-Es and were scored separately as multi-CFU-Es. The number of “multi-CFU-Es” is not shown since these cells likely represent the same cells as those forming small BFU-E colonies.
# The potential of the sorted cells to form large BFU-E, small BFU-E, CFU-G/M/Mk, and CFU-GEMM colonies (±standard deviation) was determined by a second assay in methyl cellulose containing 10U Epo, 20 nM IL-3, 20 nM IL-6 and 50 nM SCF per mL, and was scored at day 8-9. […] To determine the effect of DMOG, colony assays of sorted BFU-E (CD71 and CD24a^10% low) cells were also performed in the presence of 333 μM DMOG. In agreement with the finding that DMOG enhances BFU-E self-renewal BFU-E colonies were larger with a more immature appearance in the presence of DMOG and Dex. Therefore, in the presence of DMOG and Dex most BFU-E colonies were scored as “large BFU-Es.”
# No GEMM colonies were formed (Table S2).
# as §4
# [5] = test system: Lin-Sca-1-c-kit+ bone marrow progenitor population; assay: SFELE culture of Lin neg, c-kit pos, Sca-1 neg bone marrow cells; format: cell-based, mouse; conditions: for Enhancement of proliferation by DMOG above the effect of Dex: bone marrow cells, 333 μM DMOG
# Excerpt: FIGS. 5A-5C. […] Total cell number was counted daily and normalized to the number of cells added to the culture. (n=4). Error bars show one standard deviation.
# In the bone marrow BFU-E cells are found in the Lin^neg, c-kit^pos, Sca-1^neg fraction; this cell population contains mostly a mix of lineage restricted progenitor cells of which a minority are BFU-Es (Pronk et al., 2007).
# [6] = test system: human peripheral blood erythroid progenitors; assay: Erythroblast formation from human mobilized peripheral blood CD34+ cells; format: cell-based; conditions: 100 μM DMOG with 1 nM Dex, human CD34+ derived progenitors
# Experimental: FIG. 6. […] Human mobilized CD34+ cells were first thawed and cultured in serum free medium supplemented with StemSpan® CC100 cytokine mix containing rhSCF, rhFlt-3L, rhIL-3 and rhIL-6 for 5 days. […] Total cell number was counted every other day until cell numbers dropped at day 5+19. More than 95% of cells at the end of the culture have erythroblast morphology (data not shown). […] Error bars show one standard deviation.
# An experiment was performed on human hematopoietic progenitor cells from mobilized peripheral blood CD34+ cells that were first cultured 5 days in serum-free medium containing rhSCF, rhFlt-3L, rhIL-3 and rhIL-6. […] Similarly to the murine cultures >95% of cells at the end of the culture are erythroblasts (data not shown).
# [7] = target: FIH (Homo sapiens, UniProt Q9NWT6); conditions: cited from earlier work
# [8] = test system: HIF prolyl hydroxylase; conditions: cited from earlier work
# [9] = 333 μM DMOG and/or 100 nM Dex versus no additions
# [10] = Day 3 of culture, 100 nM Dex or 333 μM DMOG alone
# FIH, sequence (Q9NWT6 whole entry): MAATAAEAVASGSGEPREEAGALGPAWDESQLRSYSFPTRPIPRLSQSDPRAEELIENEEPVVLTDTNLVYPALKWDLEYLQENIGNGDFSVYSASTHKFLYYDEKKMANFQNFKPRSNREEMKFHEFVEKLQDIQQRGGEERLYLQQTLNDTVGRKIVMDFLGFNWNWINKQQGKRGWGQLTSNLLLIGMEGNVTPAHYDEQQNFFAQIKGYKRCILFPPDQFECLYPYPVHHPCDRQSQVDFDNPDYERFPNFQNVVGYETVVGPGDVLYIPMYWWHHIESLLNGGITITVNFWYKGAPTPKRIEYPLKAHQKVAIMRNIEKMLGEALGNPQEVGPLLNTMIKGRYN
structure (smiles),measurement,setting,value
"COC(=O)CNC(=O)C(=O)OC [DMOG, dimethyloxalylglycine]",Relative increase in total erythroblast output per BFU-E,[1]; [9],2.5 fold
same,Enhancement of BFU-E proliferation by DMOG,[1]; 333 μM DMOG with 10 nM Dex,10 fold
same,Increase by DMOG of BFU-E proliferation in the presence of Dex,[1]; 333 μM DMOG with 100 nM Dex versus Dex alone,7.3 fold
same,Increase of total number of cells after the first three days,"[1]; CD24 and CD71 10% low BFU-E cells, 100 nM Dex and/or 333 μM DMOG",remained constant
same,"Total cell expansion from 1000 ""BFU-E"" cells, liquid culture","[1]; CD24 and CD71 10% low BFU-E cells, SFELE, 100 nM Dex and/or 333 μM DMOG, day 1","4,200"
same,"Total cell expansion from 1000 ""BFU-E"" cells, liquid culture","[1]; CD24 and CD71 10% low BFU-E cells, SFELE, 100 nM Dex and/or 333 μM DMOG, day 2","26,000"
same,"Total cell expansion from 1000 ""BFU-E"" cells, liquid culture","[1]; CD24 and CD71 10% low BFU-E cells, SFELE, 100 nM Dex and/or 333 μM DMOG, day 3","130,000"
same,"Total cell expansion from 1000 ""BFU-E"" cells, liquid culture","[1]; CD24 and CD71 10% low BFU-E cells, SFELE, 100 nM Dex and/or 333 μM DMOG, day 4","430,000"
same,"Total cell expansion from 1000 ""BFU-E"" cells, liquid culture","[1]; CD24 and CD71 10% low BFU-E cells, SFELE, 100 nM Dex and/or 333 μM DMOG, day 5","820,000"
same,"Total cell expansion from 1000 ""BFU-E"" cells, liquid culture","[1]; CD24 and CD71 10% low BFU-E cells, SFELE, 100 nM Dex and/or 333 μM DMOG, day 6","890,000"
same,"Total cell expansion from 1000 ""BFU-E"" cells, liquid culture","[1]; CD24 and CD71 10% low BFU-E cells, SFELE, 100 nM Dex and/or 333 μM DMOG, day 7","1,200,000"
same,"Total cell expansion from 1000 ""BFU-E"" cells, liquid culture","[1]; CD24 and CD71 10% low BFU-E cells, SFELE, 100 nM Dex and/or 333 μM DMOG, day 8","1,200,000"
same,Increase of proliferation of sorted BFU-E cells,"[1]; CD71 and CD24a 10% low cells, SFELE, 100 nM Dex and/or 333 μM DMOG, versus no additions",2 fold
same,Increase of proliferation of sorted CFU-E cells,[2],do not significantly increase proliferation
same,Relative increase in CFU-E output per BFU-E,[3]; [9],2.1 fold
same,"Total colony numbers from 1,000 ""BFU-E"" cells: CFU-E 1 cluster",[3]; day 0 (before culture),30 (±11)
same,"Total colony numbers from 1,000 ""BFU-E"" cells: large BFU-E >20 clusters",[3]; day 0 (before culture),423 (±31)
same,"Total colony numbers from 1,000 ""BFU-E"" cells: small BFU-E 5-20 clusters",[3]; day 0 (before culture),262 (±64)
same,"Total colony numbers from 1,000 ""BFU-E"" cells: CFU-E 1 cluster",[3]; day 1,637 (±227)
same,"Total colony numbers from 1,000 ""BFU-E"" cells: large BFU-E >20 clusters",[3]; day 1,428 (±72)
same,"Total colony numbers from 1,000 ""BFU-E"" cells: small BFU-E 5-20 clusters",[3]; day 1,"1,284 (±683)"
same,"Total colony numbers from 1,000 ""BFU-E"" cells: CFU-E 1 cluster",[3]; day 2,"6,991 (±1,226)"
same,"Total colony numbers from 1,000 ""BFU-E"" cells: large BFU-E >20 clusters",[3]; day 2,217 (±33)
same,"Total colony numbers from 1,000 ""BFU-E"" cells: small BFU-E 5-20 clusters",[3]; day 2,"3,232 (±1,416)"
same,"Total colony numbers from 1,000 ""BFU-E"" cells: CFU-E 1 cluster",[3]; day 3,"23,685 (±5,919)"
same,"Total colony numbers from 1,000 ""BFU-E"" cells: large BFU-E >20 clusters",[3]; day 3,156 (±69)
same,"Total colony numbers from 1,000 ""BFU-E"" cells: small BFU-E 5-20 clusters",[3]; day 3,"4,399 (±2,039)"
same,"Total colony numbers from 1,000 ""BFU-E"" cells: CFU-E 1 cluster",[3]; day 4,"27,530 (±13,756)"
same,"Total colony numbers from 1,000 ""BFU-E"" cells: CFU-E 1 cluster",[3]; day 5,"26,730 (±9,557)"
same,"Total colony numbers from 1,000 ""BFU-E"" cells: large BFU-E >20 clusters",[3]; day 5,0
same,"Total colony numbers from 1,000 ""BFU-E"" cells: small BFU-E 5-20 clusters",[3]; day 5,"1,000 (±365)"
same,"Total colony numbers from 1,000 ""BFU-E"" cells: CFU-E 1 cluster",[3]; day 6,"9,598 (±8,627)"
same,BFU-Es per plated BFU-E,[3]; [10],4.8
same,CFU-Es per plated BFU-E,[3]; [10],24
same,CFU-E colonies,[4],21 (±11) colonies per 1000 plated cells
same,CFU-G/M/Meg colonies,[4],5 (±6) colonies per 1000 plated cells
same,GEMM colonies,[4],0 colonies per 1000 plated cells
same,large BFU-E colonies,[4],164 (±23) colonies per 1000 plated cells
same,small BFU-E colonies,[4],243 (±30) colonies per 1000 plated cells
same,Effect on proliferation of bone marrow cells,"[5]; 333 μM DMOG alone, 1 nM and 100 nM Dex",little if any effect
same,Enhancement of proliferation by DMOG above the effect of Dex,[5]; 1 nM Dex,2.1 fold
same,Enhancement of proliferation by DMOG above the effect of Dex,[5]; 10 nM Dex (so in the source),2.4 fold
same,Erythroblasts formed relative to cultures with Dex alone,[6],~10 times
O=C(O)C(=O)N[C@H](Cc1ccccc1)C(=O)O [N-oxalyl-d-phenylalanine],Inhibition of FIH,[7],inhibit the FIH
same,Inhibition of a HIF prolyl hydroxylase,[8],not a HIF prolyl hydroxylase
